Reference: the supplement of paper PMC10627819

Assays:
[1] = system: S. pneumoniae D39V; assay: fitness (endpoint OD595 vs no drug) (fraction); higher = more growth
In short: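 Fitness compares growth at the stationary-phase transition with the robust mean of no-drug control wells, as a ratio of optical densities. The ratio is capped at 1. Wells of 384-well plates held 30 µl, or 55 µl for S. pneumoniae, inoculated at OD595 0.01. Readings at OD595 every 30 min for 14 h at 37 °C were corrected against the first reading.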

[2] = system: B. subtilis 168; assay: Bliss interaction score (quartile over a dose matrix) (fitness difference); higher = more antagonism (negative = synergy)
In short: (§1)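 Fitness was OD595 at entry into stationary phase divided by the plate's robust no-drug mean and capped at 1; single-drug fitness was inferred from combination data. The Bliss score is observed minus expected (product) fitness, summarised by quartiles over technical, biological and donor/recipient replicates.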

[3] = system: S. pneumoniae D39V; assay: as above
In short: as §1

[4] = system: S. aureus DSM 20231; assay: as above
In short: as §1

[5] = system: S. aureus Newman; assay: as above
In short: as §1
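Wherever Bliss interaction score (quartile over a dose matrix) is given: first quartile when negative (synergy) and third quartile when positive (antagonism).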

CC[C@H]1OC(=O)[C@H](C)[C@@H](O[C@H]2C[C@@](C)(OC)[C@@H](O)[C@H](C)O2)[C@H](C)[C@@H](O[C@@H]2O[C@H](C)C[C@H](N(C)C)[C@H]2O)[C@](C)(OC)C[C@@H](C)C(=O)[C@H](C)[C@@H](O)[C@]1(C)O [Clarithromycin] + CC1=C\[C@@H](O)CC(=O)Cc2nc(co2)C(=O)N2CCC=C2C(=O)O[C@H](C(C)C)[C@H](C)/C=C/C(=O)NC\C=C\1 [Virginiamycin M1]
fitness, [1], one replicate
Details	first compound 0.007812 µg/mL	first compound 0.01562 µg/mL	first compound 0.03125 µg/mL	first compound 0.0625 µg/mL	first compound 0.125 µg/mL	first compound 0.25 µg/mL
partner 0.15 µg/mL	–	–	–	0.788	0.645	0.463
partner 0.3 µg/mL	–	–	–	0.734	0.635	0.425
partner 0.5 µg/mL	0.856	0.884	0.758	0.756	0.529	0.361
partner 1 µg/mL	0.852	0.85	0.719	0.608	0.328	0.132
partner 2 µg/mL	0.853	0.808	0.682	–	–	–

fitness, [1]
Details	first compound 0.0625 µg/mL	first compound 0.07 µg/mL	first compound 0.125 µg/mL	first compound 0.14 µg/mL	first compound 0.25 µg/mL	first compound 0.28 µg/mL
partner 0.5 µg/mL	–	0.119	–	0.0772	–	0.0473
partner 1 µg/mL	–	0.118	–	0.0875	–	0.0656
partner 2 µg/mL	0.647	0.124	0.463	0.105	0.288	0.0464

Details	Bliss interaction score
[2]	0.0359
[3]	0.0597
[4]	0.0856
[5]	0.0322

CC[C@H]1OC(=O)[C@H](C)[C@@H](O[C@H]2C[C@@](C)(OC)[C@@H](O)[C@H](C)O2)[C@H](C)[C@@H](O[C@@H]2O[C@H](C)C[C@H](N(C)C)[C@H]2O)[C@](C)(OC)C[C@@H](C)C(=O)[C@H](C)[C@@H](O)[C@]1(C)O [Clarithromycin] + CC(=O)NC[C@H]1CN(c2ccc(N3CCOCC3)c(F)c2)C(=O)O1 [Linezolid]
fitness, [1], one replicate
Details	first compound 0.007812 µg/mL	first compound 0.01562 µg/mL	first compound 0.03125 µg/mL
partner 0.2 µg/mL	0.728	0.709	0.581
partner 0.4 µg/mL	0.565	0.609	0.452
partner 0.8 µg/mL	0.277	0.314	0.193

fitness, [1]
Details	first compound 0.0625 µg/mL	first compound 0.07 µg/mL	first compound 0.125 µg/mL	first compound 0.14 µg/mL	first compound 0.25 µg/mL	first compound 0.28 µg/mL
partner 0.105 µg/mL	0.637	–	0.35	–	0.111	–
partner 0.2 µg/mL	–	0.0674	–	0.0794	–	0.0498
partner 0.21 µg/mL	0.533	–	0.269	–	0.0783	–
partner 0.4 µg/mL	–	0.0735	–	0.0846	–	0.0492
partner 0.42 µg/mL	0.326	–	0.163	–	0.101	–
partner 0.8 µg/mL	–	0.0543	–	0.0384	–	0.0345

Details	Bliss interaction score
[2]	-0.0553
[3]	-0.0363
[4]	-0.135
[5]	-0.119

CC[C@H]1OC(=O)[C@H](C)[C@@H](O[C@H]2C[C@@](C)(OC)[C@@H](O)[C@H](C)O2)[C@H](C)[C@@H](O[C@@H]2O[C@H](C)C[C@H](N(C)C)[C@H]2O)[C@](C)(OC)C[C@@H](C)C(=O)[C@H](C)[C@@H](O)[C@]1(C)O [Clarithromycin] + CC(C1CCC(C(O1)OC2C(CC(C(C2O)OC3C(C(C(CO3)(C)O)NC)O)N)N)N)NC [Gentamicin]
fitness, [1], one replicate, main component drawn
Details	first compound 0.007812 µg/mL	first compound 0.01562 µg/mL	first compound 0.03125 µg/mL
partner 2 µg/mL	0.876	0.84	0.63
partner 4 µg/mL	0.873	0.878	0.651
partner 8 µg/mL	0.885	0.842	0.645

fitness, [1], main component drawn
Details	first compound 0.0625 µg/mL	first compound 0.07 µg/mL	first compound 0.125 µg/mL	first compound 0.14 µg/mL	first compound 0.25 µg/mL	first compound 0.28 µg/mL
partner 2 µg/mL	0.45	0.146	0.228	0.0838	0.0804	0.0949
partner 4 µg/mL	0.447	0.144	0.206	0.0957	0.0925	0.0738
partner 8 µg/mL	0.349	0.195	0.169	0.132	0.104	0.0605

main component drawn
Details	Bliss interaction score
[2]	0.0895
[3]	-0.06
[4]	0.12
[5]	0.108

CC[C@H]1OC(=O)[C@H](C)[C@@H](O[C@H]2C[C@@](C)(OC)[C@@H](O)[C@H](C)O2)[C@H](C)[C@@H](O[C@@H]2O[C@H](C)C[C@H](N(C)C)[C@H]2O)[C@](C)(OC)C[C@@H](C)C(=O)[C@H](C)[C@@H](O)[C@]1(C)O [Clarithromycin] + CCC(C)C1C(=O)NC(=C)C(=O)NC(C(=O)NC(CSCC(C(=O)N1)NC(=O)/C(=C/C)/NC(=O)C(C(C)CC)N)C(=O)NC2C(SCC(NC(=O)CNC(=O)C3CCCN3C2=O)C(=O)NC(CCCCN)C(=O)NC4C(SCC(NC(=O)CNC(=O)C(NC(=O)C(NC(=O)C(NC(=O)CNC4=O)C)CC(C)C)CCSC)C(=O)NC(CC(=O)N)C(=O)NC(CCSC)C(=O)NC(CCCCN)C(=O)NC5C(SCC6C(=O)NC(C(=O)NC(CSC(C(C(=O)N6)NC(=O)C(NC5=O)C)C)C(=O)NC(CO)C(=O)NC(C(C)CC)C(=O)NC(CC7=CN=CN7)C(=O)NC(C(C)C)C(=O)NC(=C)C(=O)NC(CCCCN)C(=O)O)CC8=CN=CN8)C)C)C)CC(C)C [Nisin]
fitness, [1], one replicate, main component drawn
Details	first compound 0.007812 µg/mL	first compound 0.01562 µg/mL	first compound 0.03125 µg/mL
partner 1.6 µg/mL	0.0546	0.105	0.0716
partner 3.2 µg/mL	0.0468	0.0811	0.0837
partner 6.4 µg/mL	0.0495	0.123	0.0731

[1], main component drawn
Details	fitness
first compound 0.0625 µg/mL, partner 0.4275 µg/mL	0.704
first compound 0.0625 µg/mL, partner 1.71 µg/mL	0.0947
first compound 0.07 µg/mL, partner 1.6 µg/mL	0.0167
first compound 0.07 µg/mL, partner 3.2 µg/mL	0.0245
first compound 0.07 µg/mL, partner 6.4 µg/mL	0.0168
first compound 0.125 µg/mL, partner 0.4275 µg/mL	0.233
first compound 0.125 µg/mL, partner 0.855 µg/mL	0.118
first compound 0.125 µg/mL, partner 1.71 µg/mL	0.0991
first compound 0.14 µg/mL, partner 1.6 µg/mL	0.019
first compound 0.14 µg/mL, partner 3.2 µg/mL	0.0272
first compound 0.14 µg/mL, partner 6.4 µg/mL	0.0323
first compound 0.25 µg/mL, partner 0.4275 µg/mL	0.0872
first compound 0.25 µg/mL, partner 0.855 µg/mL	0.0757
first compound 0.25 µg/mL, partner 1.71 µg/mL	0.0969
first compound 0.28 µg/mL, partner 1.6 µg/mL	0.0103
first compound 0.28 µg/mL, partner 3.2 µg/mL	0.0421
first compound 0.28 µg/mL, partner 6.4 µg/mL	0.0171

main component drawn
Details	Bliss interaction score
[2]	0.0377
[3]	0.0379
[4]	-0.0781
[5]	-0.0489

CC[C@H]1OC(=O)[C@H](C)[C@@H](O[C@H]2C[C@@](C)(OC)[C@@H](O)[C@H](C)O2)[C@H](C)[C@@H](O[C@@H]2O[C@H](C)C[C@H](N(C)C)[C@H]2O)[C@](C)(OC)C[C@@H](C)C(=O)[C@H](C)[C@@H](O)[C@]1(C)O [Clarithromycin] + CCC[C@@H]1C[C@@H](C(=O)N[C@@H]([C@H]2O[C@H](SC)[C@H](O)[C@@H](O)[C@H]2O)[C@@H](C)O)N(C)C1 [Lincomycin]
fitness, [1], one replicate
Details	first compound 0.007812 µg/mL	first compound 0.01562 µg/mL	first compound 0.03125 µg/mL
partner 0.2 µg/mL	0.614	0.678	0.559
partner 0.4 µg/mL	0.545	0.619	0.395
partner 0.8 µg/mL	0.0517	0.0966	0.0574

fitness, [1]
Details	first compound 0.0625 µg/mL	first compound 0.07 µg/mL	first compound 0.125 µg/mL	first compound 0.14 µg/mL	first compound 0.25 µg/mL	first compound 0.28 µg/mL
partner 0.2 µg/mL	–	0.0703	–	0.063	–	0.0359
partner 0.215 µg/mL	0.656	–	0.487	–	0.328	–
partner 0.4 µg/mL	–	0.0783	–	0.0665	–	0.035
partner 0.43 µg/mL	0.599	–	0.367	–	0.262	–
partner 0.8 µg/mL	–	0.0297	–	0.0353	–	0.0359
partner 0.86 µg/mL	0.269	–	0.131	–	0.0936	–

Details	Bliss interaction score
[2]	0.103
[3]	0.0426
[4]	-0.12
[5]	-0.144
